{"source": "patent US20210363124A1", "about": "“HETEROCYCLYL POLYMETHINE IR CHROMOPHORES” (The Regents of the University of California, priority 2018, published 2021)", "assay_type_in_all_cases": "physicochemical", "key": {"[1]": {"experiment": "Photobleaching under continuous-wave irradiation (532 nm, 0.53 fluence)", "details": "for photostability (in words): dichloromethane, 532 nm irradiation", "method": "Photostabilities of the Flav series were measured under continuous-wave irradiation (532 nm, 0.53 fluence).\n(§1) Polymethine dyes disclosed herein are characterized with respect to their photophysics including absorption, emission, extinction coefficient, quantum yields, and fluorescence lifetime. All quantum yields values obtained are absolute quantum yields values measured using an integrating sphere. Photostabilities are evaluated by sample irradiation with high powered LEDs. Additionally, solvatochromism, solvent compatibility, and stability are assessed."}, "[2]": {"experiment": "Emission spectra and absolute fluorescence quantum yield in dichloromethane (integrating sphere)", "method": "(§2) The absorption, emission, and photostability properties of flavylium dyes 3-6 were measured.\nFinally, the photoluminescence of Flav7 was compared to the prominent SWIR polymethine dyes, IR-26 and IR-1061. IR-26 has been widely-employed as a standard for this region, while IR-1061 has recently been the active component of nanomaterials for NIR-II in vivo imaging. Despite numerous studies which rely on these dyes, the reported ΦF for IR-26 have been inconsistent, and the ΦF of IR-1061 has yet to be thoroughly characterized. Consequently, to establish that Flav7 is more emissive than existing SWIR polymethine dyes, each dye's emission was directly compared using a SWIR camera. We prepared solutions of 3, IR-26, and IR-1061 in dichloromethane with identical absorbance at 808 nm, excited with a diffuse 808 nm laser, and imaged their emission over 1000-1500 nm.\n(§3) The absorbance spectra in FIG. 2 and FIGS. 4A-4G were obtained in DCM on a JASCO V-770 UV-Visible/NIR spectrophotometer with a 2000 nm/min or 4000 nm/min scan rate. Plotted are the baseline corrected and normalized data. The emission spectra in FIG. 2 were taken in DCM on either a Horiba Instruments PTI QuantaMaster Series fluorometer (6), a Fluoromax-3 spectrofluorometer (1, 3-5), or home-built InGaAs array detector (Princeton Instruments). For 6 the following parameters were used: ex. 610 nm, emission collected from 620-900 nm, slits 5 nm, step size 1 nm, integration time 1 s. Plotted is the DCM corrected, baseline corrected, normalized data. For 1, and 3-5, the following parameters were used: slits 5 nm, step size 1 nm, integration time, 0.25 s. […]\nas §1"}, "[3]": {"experiment": "Absorption spectra of flavylium dyes in dichloromethane (UV-Visible/NIR spectrophotometer)", "method": "as §2, §3, §1"}}, "note": "“Also recorded” adds a separate entry of the source.", "data": [{"compound": "CN(C)c1ccc2c(c1)OC(c1ccccc1)=C\\C2=C/C=C/C=C/c1cc(-c2ccccc2)[o+]c2cc(N(C)C)ccc12.[O-][Cl+3]([O-])([O-])[O-]", "note": "[Dye 4, 7-(dimethylamino)-4-((1E,3E)-5-((E)-7-(dimethylamino)-2-phenyl-4H-chromen-4-ylidene)penta-1,3-dien-1-yl)-2-phenylchromenylium perchlorate]", "values": [{"measurement": "photostability (in words)", "setting": "[1]; listed as Flav5", "value": "excellent photostabilities; also recorded: desirable photostability"}]}, {"compound": "CN(C)c1ccc2c(c1)OC(c1ccccc1)=C/C2=C\\C=C\\c1cc(-c2ccccc2)[o+]c2cc(N(C)C)ccc12.[O-][Cl+3]([O-])([O-])[O-]", "note": "[Dye 5, 7-(Dimethylamino)-4-((E)-3-((E)-7-(dimethylamino)-2-phenyl-4H-chromen-4-ylidene)prop-1-en-1-yl)-2-phenylchromenylium perchlorate]", "values": [{"measurement": "photostability (in words)", "setting": "[1]", "value": "excellent photostabilities"}, {"measurement": "photostability relative to HITCI", "setting": "[1]; more photostable than HITCI", "value": 4, "unit": "fold"}]}, {"compound": "CN(C)c1ccc2c(c1)OC(c1ccccc1)=C/C2=C\\c1cc(-c2ccccc2)[o+]c2cc(N(C)C)ccc12.O=C([O-])C(F)(F)F", "note": "[Dye 6, (E)-7-(Dimethylamino)-4-((7-(dimethylamino)-2-phenyl-4H-chromen-4-ylidene)methyl)-2-phenylchromenylium 2,2,2-trifluoroacetate]", "values": [{"measurement": "photostability (in words)", "setting": "[1]", "value": "excellent photostabilities"}]}, {"compound": "CN1C(=CC=CC=CC=CC2=[N+](C)c3ccccc3C2(C)C)C(C)(C)c2ccccc21.[I-]", "note": "[HITCI, 1,1′,3,3,3′,3′-hexamethylindotricarbocyanine iodide]", "values": [{"measurement": "ΦF relative to Flav3", "setting": "[2]; higher ΦF than Flav3", "value": "~10", "unit": "fold"}, {"measurement": "absorption (DCM) λmax", "setting": "[3]", "value": "~745", "unit": "nm"}, {"measurement": "absorption (DCM) ε", "setting": "[3]; at λmax", "value": "~220,000 M^−1cm^−1"}]}, {"compound": "ClC1=C(/C=C/c2cc(-c3ccccc3)[s+]c(-c3ccccc3)c2)CCC/C1=C/C=C1C=C(c2ccccc2)SC(c2ccccc2)=C1.F[B-](F)(F)F", "note": "[IR-1061]", "values": [{"measurement": "emission (DCM) λmax", "setting": "[2]; dichloromethane", "value": 1081, "unit": "nm"}, {"measurement": "ΦF", "setting": "[2]; dichloromethane, absolute quantum yield", "value": "0.32±0.04", "unit": "%"}]}]}
